Measured values: patent US8883785B2, “Certain kynurenine-3-monooxygenase inhibitors, pharmaceutical compositions, and methods of use thereof” (CHDI Foundation, Inc., priority 2010, dated 2014)

Target: T1, KMO mouse enzyme (Mus musculus, UniProt Q91WN4)
T1 construct: KMO enzyme prepared at Evotec from mouse liver (4-6 weeks old) via mitochondria isolation; from tissue; host or cells: mouse liver (4-6 weeks old), mitochondria isolation
Assay: Mouse KMO enzyme assay: L-kynurenine hydroxylation to 3OH-KYN by LC/MS
Format: biochemical
Conditions: compound at 10 μM; KMO from mouse liver mitochondria; read-out: INH.Mouse @ 10 μM
Method: Product is quantified by multiple reaction monitoring (MRM method).
IC50's are calculated using automated fitting algorithm (A+Analysis).

T1 sequence (Q91WN4 whole entry): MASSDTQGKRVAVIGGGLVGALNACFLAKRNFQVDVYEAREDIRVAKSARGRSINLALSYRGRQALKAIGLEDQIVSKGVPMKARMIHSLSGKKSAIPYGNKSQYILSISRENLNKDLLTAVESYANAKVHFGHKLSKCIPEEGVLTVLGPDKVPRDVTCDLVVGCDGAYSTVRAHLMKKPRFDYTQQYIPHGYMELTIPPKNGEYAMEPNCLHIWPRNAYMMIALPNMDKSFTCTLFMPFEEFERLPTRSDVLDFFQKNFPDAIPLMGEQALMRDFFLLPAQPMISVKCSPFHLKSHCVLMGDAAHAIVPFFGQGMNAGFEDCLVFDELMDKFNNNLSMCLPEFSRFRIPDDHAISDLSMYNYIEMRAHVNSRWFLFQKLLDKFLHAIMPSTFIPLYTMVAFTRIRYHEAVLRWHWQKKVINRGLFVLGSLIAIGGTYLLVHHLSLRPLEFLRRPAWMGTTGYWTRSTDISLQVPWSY

In order of falling inhibition at 10 µM:
1. O=c1[nH]cc(-c2cc(-c3ccc(Cl)c(Cl)c3)ncn2)[nH]1 [4-[6-(3,4-dichlorophenyl)pyrimidin-4-yl]-1,3-dihydroimidazol-2-one]  105%
2. Clc1cccc(-c2cc(-c3nnn[nH]3)ncn2)c1 [4-(3-chlorophenyl)-6-(1H-tetrazol-5-yl)pyrimidine]  103%
3. Fc1ccc(-c2cc(-c3nnn[nH]3)ncn2)cc1Cl [4-(3-chloro-4-fluorophenyl)-6-(1H-tetrazol-5-yl)pyrimidine]  103%
4. Clc1cccc(-c2cc(-c3nnc[nH]3)ncn2)c1 [4-(3-chlorophenyl)-6-(4H-1,2,4-triazol-3-yl)pyrimidine]  102%
5. S=c1[nH]c(-c2cc(-c3ccc(Cl)c(Cl)c3)ncn2)no1 [3-[6-(3,4-dichlorophenyl)pyrimidin-4-yl]-4H-1,2,4-oxadiazole-5-thione]  102%
6. Clc1cccc(-c2cc(-c3nc4ccccc4[nH]3)ncn2)c1 [2-[6-(3-chlorophenyl)pyrimidin-4-yl]-1H-benzimidazole]  102%
7. Fc1ccc(-c2cc(-c3nnn[nH]3)ncn2)cc1F [4-(3,4-difluorophenyl)-6-(1H-tetrazol-5-yl)pyrimidine]  101%
8. Cc1coc(-c2cc(-c3ccc(Cl)c(Cl)c3)ncn2)n1 [4-(3,4-dichlorophenyl)-6-(4-methyl-1,3-oxazol-2-yl)pyrimidine]  101%
9. Cc1coc(-c2cc(-c3cccc(Cl)c3)ncn2)n1 [4-(3-chlorophenyl)-6-(4-methyl-1,3-oxazol-2-yl)pyrimidine]  101%
10. Cc1ccc(-c2cc(-c3nnn[nH]3)ncn2)cc1F [4-(3-Fluoro-4-methyl-phenyl)-6-(1H-tetrazol-5-yl)-pyrimidine]  100%
11. Clc1ccc(-c2cc(-c3nnc[nH]3)ncn2)cc1Cl [4-(3,4-dichlorophenyl)-6-(4H-1,2,4-triazol-3-yl)pyrimidine]  100%
12. Cc1ccc(-c2cc(-c3noc(=O)[nH]3)ncn2)cc1F [3-[6-(3-Fluoro-4-methyl-phenyl)-pyrimidin-4-yl]-4H-[1,2,4]oxadiazol-5-one]  100%
13. FC(F)(F)Oc1ccc(-c2cc(-c3nnn[nH]3)ncn2)cc1Cl [4-(3-Chloro-4-trifluoromethoxy-phenyl)-6-(1H-tetrazol-5-yl)-pyrimidine]  100%
14. CC(C)Oc1ccc(-c2cc(-c3nnn[nH]3)ncn2)cc1Cl [4-(3-Chloro-4-isopropoxy-phenyl)-6-(1H-tetrazol-5-yl)-pyrimidine]  100%
15. O=c1[nH]c(-c2cc(-c3ccc(F)c(F)c3)ncn2)no1 [3-[6-(3,4-Difluoro-phenyl)-pyrimidin-4-yl]-4H-[1,2,4]oxadiazol-5-one]  100%
16. O=c1[nH]c(-c2cc(-c3ccc(F)c(Cl)c3)ncn2)no1 [3-[6-(3-Chloro-4-fluoro-phenyl)-pyrimidin-4-yl]-4H-[1,2,4]oxadiazol-5-one]  100%
17. O=c1[nH]c(-c2cc(-c3ccc(OC(F)(F)F)c(Cl)c3)ncn2)no1 [3-[6-(3-Chloro-4-trifluoromethoxy-phenyl)-pyrimidin-4-yl]-4H-[1,2,4]oxadiazol-5-one]  99%
18. Clc1ccc(-c2cc(-c3ncc[nH]3)ncn2)cc1Cl [4-(3,4-dichlorophenyl)-6-(1H-imidazol-2-yl)pyrimidine]  99%
19. Cc1ccc(-c2cc(-c3noc(=O)[nH]3)ncn2)cc1Cl [3-[6-(3-Chloro-4-methyl-phenyl)-pyrimidin-4-yl]-4H-[1,2,4]oxadiazol-5-one]  98%
20. O=c1[nH]c(-c2cc(-c3cccc(Cl)c3)ncn2)no1 [3-[6-(3-chlorophenyl)pyrimidin-4-yl]-4H-1,2,4-oxadiazol-5-one]  96.3%
21. CC(C)Oc1ccc(-c2cc(-c3noc(=O)[nH]3)ncn2)cc1Cl [3-[6-(3-Chloro-4-isopropoxy-phenyl)-pyrimidin-4-yl]-4H-[1,2,4]oxadiazol-5-one]  96%
22. Clc1ccc(-c2cc(C3=NCCN3)ncn2)cc1Cl [4-(3,4-dichlorophenyl)-6-(4,5-dihydro-1H-imidazol-2-yl)pyrimidine]  95.5%
23. Clc1ccc(-c2cc(-c3ncco3)ncn2)cc1Cl [4-(3,4-Dichloro-phenyl)-6-oxazol-2-yl-pyrimidine]  93%
24. Cc1c[nH]c(-c2cc(-c3ccc(Cl)c(Cl)c3)ncn2)n1 [4-(3,4-dichlorophenyl)-6-(4-methyl-1H-imidazol-2-yl)pyrimidine]  92.3%
25. Cn1nnc(-c2cc(-c3cccc(Cl)c3)ncn2)n1 [4-(3-chlorophenyl)-6-(2-methyltetrazol-5-yl)pyrimidine]  91.2%
26. Cc1noc(-c2cc(-c3cccc(Cl)c3)ncn2)n1 [4-(3-chlorophenyl)-6-(3-methyl-1,2,4-oxadiazol-5-yl)pyrimidine]  91%
27. FC(F)(F)c1nc(-c2cc(-c3ccc(Cl)c(Cl)c3)ncn2)no1 [4-(3,4-dichlorophenyl)-6-[5-(trifluoromethyl)-1,2,4-oxadiazol-3-yl]pyrimidine]  87%
28. Cc1nnc(-c2cc(-c3ccc(Cl)c(Cl)c3)ncn2)[nH]1 [4-(3,4-dichlorophenyl)-6-(5-methyl-4H-1,2,4-triazol-3-yl)pyrimidine]  80%
29. Cn1[nH]cc(-c2cc(-c3ccc(Cl)c(Cl)c3)ncn2)c1=O [4-[6-(3,4-dichlorophenyl)pyrimidin-4-yl]-2-methyl-1H-pyrazol-3-one]  73.6%
30. Cn1nnnc1-c1cc(-c2cccc(Cl)c2)ncn1 [4-(3-chlorophenyl)-6-(1-methyltetrazol-5-yl)pyrimidine]  65.6%
31. O=c1[nH]c(-c2cc(-c3cncc(Cl)c3)ncn2)no1 [3-[6-(5-chloropyridin-3-yl)pyrimidin-4-yl]-4H-1,2,4-oxadiazol-5-one]  65.2%
32. FC(F)(F)c1cn(-c2cc(-c3ccc(Cl)c(Cl)c3)ncn2)cn1 [4-(3,4-dichlorophenyl)-6-[4-(trifluoromethyl)imidazol-1-yl]pyrimidine]  64.4%
33. O=c1[nH]nc(-c2cc(-c3ccc(Cl)c(Cl)c3)ncn2)[nH]1 [5-[6-(3,4-dichlorophenyl)pyrimidin-4-yl]-2,4-dihydro-1,2,4-triazol-3-one]  58.1%
34. FC(F)(F)c1ccn(-c2cc(-c3ccc(Cl)c(Cl)c3)ncn2)n1 [4-(3,4-dichlorophenyl)-6-[3-(trifluoromethyl)pyrazol-1-yl]pyrimidine]  56.7%
35. Clc1cccc(-c2cc(-c3nc4ccccc4o3)ncn2)c1 [2-[6-(3-chlorophenyl)pyrimidin-4-yl]-1,3-benzoxazole]  54.4%
36. Cc1nc(-c2cc(-c3ccc(Cl)c(Cl)c3)ncn2)no1 [4-(3,4-dichlorophenyl)-6-(5-methyl-1,2,4-oxadiazol-3-yl)pyrimidine]  51%
37. Clc1ccc(-c2cc(-c3nc4ccccc4[nH]3)ncn2)cc1Cl [2-[6-(3,4-dichlorophenyl)pyrimidin-4-yl]-1H-benzimidazole]  49.7%
38. Clc1ccc(-c2cc(-c3nccs3)ncn2)cc1Cl [4-(3,4-Dichloro-phenyl)-6-thiazol-2-yl-pyrimidine]  48%
39. Cc1coc(-c2cc(-c3ccc(Cl)c(Cl)c3)nc(C)n2)n1 [4-(3,4-dichlorophenyl)-2-methyl-6-(4-methyl-1,3-oxazol-2-yl)pyrimidine]  46.8%
40. CNC(=O)c1ccc(-c2cc(-c3ccc(Cl)c(Cl)c3)ncn2)nc1 [6-[6-(3,4-dichlorophenyl)pyrimidin-4-yl]-N-methylpyridine-3-carboxamide]  39.1%
41. Clc1cccc(-c2cc(-c3nc4ccc(Cl)cc4[nH]3)ncn2)c1 [6-chloro-2-[6-(3-chlorophenyl)pyrimidin-4-yl]-1H-benzimidazole]  39.1%
42. Clc1ccc(-c2cc(-c3cc[nH]n3)ncn2)cc1Cl [4-(3,4-Dichloro-phenyl)-6-(1H-pyrazol-3-yl)-pyrimidine]  19%

Tested on: not listed separately
Assay: Solubility remark made when LCMS was attempted
Format: physicochemical
Conditions: solvents for LCMS

With O=c1[nH]nc(-c2cc(-c3ccc(Cl)c(Cl)c3)ncn2)[nH]1 [5-[6-(3,4-dichlorophenyl)pyrimidin-4-yl]-2,4-dihydro-1,2,4-triazol-3-one] the “solubility” value was “very unsoluble compound- LCMS unobtainable 1H NMR (250 MHz, DMSO-d6) d ppm 9.27-9.32 (1 H, m), 8.39- 8.47 (2 H, m), 8.17-8.25 (1 H, m), 7.76-7.85 (1 H, m)”.
With Cn1[nH]cc(-c2cc(-c3ccc(Cl)c(Cl)c3)ncn2)c1=O [4-[6-(3,4-dichlorophenyl)pyrimidin-4-yl]-2-methyl-1H-pyrazol-3-one] the “solubility” value was “Compound is insuffciently souble in any acceptable solvent in order to obtain a meaningful LCMS 1H NMR (500 MHz, DMSO-d6) d ppm 8.88 (1H, s), 8.44 (1H, br.s.), 8.26 (1H, br.s.), 8.19 (1H, d), 8.06 (1H, br.s.), 7.85 (1H, d), 3.45 (3H, s)”.
